Read-outs that look alike come from different tables or passages of the source.
Assays:
[1] = biological target: T1, truncated form of human Choline kinase α1 that includes residues 75-457 (Homo sapiens, UniProt P35790); test: Kinase Assay, coupled (ATP regeneration) LDH/PK assay, NADH absorbance; format: biochemical
T1 construct: made in house
Description: Absorbance of NADH (340 nm) was measured over 30 min using a SpectraMax M5 (Molecular Devices). Initial reaction velocity (ΔA340/Δt) was calculated and plotted as a function of inhibitor concentration in a 2-fold dilution series. IC50 values were obtained by fitting the relative velocities to a dose-response model.

[2] = biological target: T2, ChoKα protein (Homo sapiens, UniProt P35790); test: Binding affinity by surface plasmon resonance (SensiQ Pioneer, FastStep)
T2 construct: made in house
Description: KD may be measured using surface plasmon resonance (BIAcore®) technology, see, e.g., Panayotou et al, Mol. Cell. […] ChoKα protein was immobilized by standard amine coupling methods on a COOH5 sensor chip installed in a SensiQ Pioneer system. Sensograms were measured using the FastStep™ screen method with an upper concentration of 500 nM. Kinetics and affinity were obtained from fits using a 1:1 binding model.

[3] = system: cancer cell lines; test: Cellular Growth Inhibition Assay (CyQuant Cell Proliferation Assay Kit); format: cell-based
Description: Cellular Growth Inhibition AssayVehicle or compound treated cells were assessed for cell growth after 72 hours of treatment using the CyQuant® Cell Proliferation Assay Kit (Life Technologies, Grand Island, N.Y.). […] Data are shown as mean (±SD) from ≧2 separate experiments.

[4] = Examples not designated with an asterisk, footnote prints version 1 of the Kinase Assay, read-out: IC50
[5] = SPR, 1:1 binding model, upper concentration 500 nM, read-out: Kd
[6] = 72 hours of treatment, cell line not named, read-out: GI50
[7] = Examples designated with an asterisk (*): version 1 of the Kinase Assay, 200 nM enzyme, read-out: IC50

T1 sequence (P35790 75-457): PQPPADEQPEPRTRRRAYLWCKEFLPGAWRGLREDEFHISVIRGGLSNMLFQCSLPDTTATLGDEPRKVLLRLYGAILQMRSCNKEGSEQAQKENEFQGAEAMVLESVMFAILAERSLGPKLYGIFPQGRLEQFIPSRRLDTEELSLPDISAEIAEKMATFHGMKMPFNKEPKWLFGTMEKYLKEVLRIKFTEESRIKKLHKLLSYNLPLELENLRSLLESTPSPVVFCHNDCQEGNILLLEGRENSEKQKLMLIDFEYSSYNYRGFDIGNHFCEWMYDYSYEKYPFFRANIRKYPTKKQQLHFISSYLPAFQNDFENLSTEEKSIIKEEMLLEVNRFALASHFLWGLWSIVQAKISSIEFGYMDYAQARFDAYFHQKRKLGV
T2 sequence (P35790 75-457): as above

IC50 [1, 4]	Kd [2, 5]	GI50 [3, 6]	IC50 [1]	Kd [2]	GI50 ([3]; 72 h)	IC50 [1, 7]	SMILES
< 100 nM	< 50 nM	< 20000 nM					CN1CCCN(Cc2ccc(-c3ccc(CN4CCC(O)CC4)cc3)c(C#N)c2)CC1 [Example 4, 4′-((4-hydroxypiperidin-1-yl)methyl)-4-((4-methyl-1,4-diazepan-1-yl)methyl)-[1,1′-biphenyl]-2-carbonitrile]
			< 100 nM	< 50 nM	< 5000 nM		CN1CCCN(Cc2ccc(-c3ccc(CN4CCCN(C)CC4)cc3C#N)cc2)CC1 [Example 14, 4,4′-bis((4-methyl-1,4-diazepan-1-yl)methyl)-[1,1′-biphenyl]-2-carbonitrile]
< 200 nM	< 60000 nM	< 20000 nM					CN1CCCN(Cc2ccc(-c3ccc(C(=O)NC4CC4)cc3)c(C#N)c2)CC1 [Example 32, 2′-cyano-N-cyclopropyl-4′-((4-methyl-1,4-diazepan-1-yl)methyl)-[1,1′-biphenyl]-4-carboxamide]
< 200 nM	< 200 nM	> 20000 nM					CN1CCCN(Cc2ccc(-c3ccc(C(=O)N4CCCN(C)CC4)cc3)c(C#N)c2)CC1 [Example 33, 4-((4-methyl-1,4-diazepan-1-yl)methyl)-4′-(4-methyl-1,4-diazepane-1-carbonyl)-[1,1′-biphenyl]-2-carbonitrile]
			< 200 nM	< 200 nM	> 20000 nM		CN1CCCN(Cc2ccc(-c3ccc(C(=O)N4CCCN(C)CC4)cc3)cc2)CC1 [Example 37, (4-methyl-1,4-diazepan-1-yl)(4′-((4-methyl-1,4-diazepan-1-yl)methyl)-[1,1′-biphenyl]-4-yl)methanone]
			< 200 nM	< 60000 nM	< 20000 nM		CN1CCCN(Cc2ccc(-c3cc(F)c(CN4CCCN(C)CC4)c(F)c3)cc2)CC1 [Example 40, 4,4′-((3,5-difluoro-[1,1′-biphenyl]-4,4′-diyl)bis(methylene))bis(1-methyl-1,4-diazepane)]
			< 100 nM	< 100 nM	< 5000 nM		CN1CCCN(Cc2ccc(-c3ccc(CN4CCCN(C)CC4)c(F)c3F)cc2)CC1 [Example 41, 4,4′-((2,3-difluoro-[1,1′-biphenyl]-4,4′-diyl)bis(methylene))bis(1-methyl-1,4-diazepane)]
< 200 nM	< 200 nM	< 5000 nM					CN1CCCN(Cc2ccc(-c3ccc(CN4CCCN(C)CC4)c(F)c3)cc2)CC1 [Example 42, 4,4′-((3-fluoro-[1,1′-biphenyl]-4,4′-diyl)bis(methylene))bis(1-methyl-1,4-diazepane)]
			< 200 nM	< 200 nM	< 5000 nM		CN1CCCN(Cc2ccc(-c3ccc(CN4CCCN(C)CC4)c(Cl)c3)cc2)CC1 [Example 43, 4,4′-((3-chloro-[1,1′-biphenyl]-4,4′-diyl)bis(methylene))bis(1-methyl-1,4-diazepane)]
			< 200 nM	< 200 nM	< 5000 nM		CN1CCCN(Cc2ccc(-c3ccc(CN4CCCN(C)CC4)cc3F)cc2)CC1 [Example 44, 4,4′-((2-fluoro-[1,1′-biphenyl]-4,4′-diyl)bis(methylene))bis(1-methyl-1,4-diazepane)]
< 200 nM	< 60000 nM	< 5000 nM					Cc1cc(C(=O)N2CCCN(C)CC2)ccc1-c1ccc(CN2CCCN(C)CC2)cc1 [Example 50, (4-methyl-1,4-diazepan-1-yl)(2-methyl-4′-((4-methyl-1,4-diazepan-1-yl)methyl)-[1,1′-biphenyl]-4-yl)methanone]
< 100 nM	< 100 nM	< 20000 nM					CN1CCCN(Cc2ccc(-c3ccc(CN4CCCN(C)CC4)cc3C#N)c(C#N)c2)CC1 [Example 56, 4,4′-bis((4-methyl-1,4-diazepan-1-yl)methyl)-[1,1′-biphenyl]-2,2′-dicarbonitrile]
< 100 nM	< 50 nM	< 20000 nM					COc1ccc(-c2cc(C(=O)N3CCCN(C)CC3)ccc2-c2ccc(CN3CCCN(C)CC3)cc2C#N)cc1 [Example 66, 4″-methoxy-4-((4-methyl-1,4-diazepan-1-yl)methyl)-4′-(4-methyl-1,4-diazepane-1-carbonyl)-[1,1′:2′,1″-terphenyl]-2-carbonitrile]
< 100 nM	< 50 nM	< 20000 nM					CN1CCCN(Cc2ccc(-c3ccc(C4(NS(C)(=O)=O)CC4)cc3)c(C#N)c2)CC1 [Example 82, N-(1-(2′-cyano-4′-((4-methyl-1,4-diazepan-1-yl)methyl)-[1,1′-biphenyl]-4-yl)cyclopropyl)methanesulfonamide]
< 100 nM	< 50 nM	> 20000 nM					CC(=O)NNC(=O)CCc1ccc(-c2ccc(CN3CCCN(C)CC3)cc2C#N)cc1 [Example 83, N′-acetyl-3-(2′-cyano-4′-((4-methyl-1,4-diazepan-1-yl)methyl)-[1,1′-biphenyl]-4-yl)propanehydrazide]
< 100 nM	< 50 nM	< 5000 nM					CNS(=O)(=O)c1ccc(-c2ccc(CN3CCCN(C)CC3)cc2C#N)cc1 [Example 86, 2′-cyano-N-methyl-4′-((4-methyl-1,4-diazepan-1-yl)methyl)-[1,1′-biphenyl]-4-sulfonamide]

IC50 [1, 4]	Kd [2, 5]	GI50 [3, 6]	IC50 [1]	Kd [2]	GI50 ([3]; 72 h)	IC50 [1, 7]	SMILES
< 100 nM	< 100 nM	> 20000 nM					CN1CCCN(Cc2ccc(-c3ccc(S(N)(=O)=O)cc3)c(C#N)c2)CC1 [Example 87, 2′-cyano-4′-((4-methyl-1,4-diazepan-1-yl)methyl)-[1,1′-biphenyl]-4-sulfonamide]
< 100 nM	< 50 nM	> 20000 nM					CN1CCCN(Cc2ccc(-c3ccc4cn[nH]c4c3)c(C#N)c2)CC1 [Example 89, 2-(1H-indazol-6-yl)-5-((4-methyl-1,4-diazepan-1-yl)methyl)benzonitrile]
< 100 nM	< 50 nM	> 20000 nM					CN1CCCN(Cc2ccc(-c3ccc4[nH]ncc4c3)c(C#N)c2)CC1 [Example 92, 2-(1H-indazol-5-yl)-5-((4-methyl-1,4-diazepan-1-yl)methyl)benzonitrile]
< 100 nM	< 50 nM	> 20000 nM					CN1CCCN(Cc2ccc(-c3ccc(NS(C)(=O)=O)cc3)c(C#N)c2)CC1 [Example 104, N-(2′-cyano-4′-((4-methyl-1,4-diazepan-1-yl)methyl)-[1,1′-biphenyl]-4-yl)methanesulfonamide]
< 100 nM	< 100 nM						CNC(=O)Nc1ccc(-c2ccc(CN3CCCN(C)CC3)cc2C#N)cc1 [Example 114, 1-(2′-cyano-4′-((4-methyl-1,4-diazepan-1-yl)methyl)-[1,1′-biphenyl]-4-yl)-3-methylurea]
			< 200 nM	< 60000 nM			COc1ccc(-c2ccc(CN3CCCN(C)CC3)cc2)cc1 [Example 128, 1-((4′-methoxy-[1,1′-biphenyl]-4-yl)methyl)-4-methyl-1,4-diazepane]
	< 60000 nM					< 200 nM	CN1CCCN(Cc2ccc(-c3ccccc3)c(F)c2)CC1 [Example 134, 1-((2-fluoro-[1,1′-biphenyl]-4-yl)methyl)-4-methyl-1,4-diazepane]
			< 200 nM	< 60000 nM			CN1CCCN(Cc2ccc(-c3ccc(C(F)(F)F)cc3)cc2)CC1 [Example 137, 1-methyl-4-((4′-(trifluoromethyl)-[1,1′-biphenyl]-4-yl)methyl)-1,4-diazepane]
			< 200 nM	< 60000 nM			CN1CCCN(Cc2ccc(-c3ccc(N4CCN(C)CC4)cc3)cc2)CC1 [Example 138, 1-methyl-4-((4′-(4-methylpiperazin-1-yl)-[1,1′-biphenyl]-411)methyl)-1,4-diazepane]
	< 60000 nM					< 500 nM	CN1CCCN(Cc2ccc(-n3cncn3)cc2)CC1 [Example 139, 1-(4-(1H-1,2,4-triazol-1-yl)benzyl)-4-methyl-1,4-diazepane]
	< 60000 nM					< 200 nM	CN1CCCN(Cc2ccc(-c3ccncc3)cc2)CC1 [Example 140, 1-methyl-4-(4-(pyridin-4-yl)benzyl)-1,4-diazepane]
	< 60000 nM					< 200 nM	CN1CCCN(Cc2ccc(-n3cccn3)cc2F)CC1 [Example 142, 1-(2-fluoro-4-(1H-pyrazol-1-yl)benzyl)-4-methyl-1,4-diazepane]
	< 60000 nM					< 200 nM	CN1CCCN(Cc2ccc(CN3CCC(N4CCCC4)CC3)cc2)CC1 [Example 148, 1-methyl-4-(4-((4-(pyrrolidin-1-yl)piperidin-1-yl)methyl)benzyl)-1,4-diazepane]
	< 60000 nM					< 200 nM	CN1CCCN(Cc2ccc(CNc3cccc(C(N)=O)c3)cc2)CC1 [Example 152, 3-((4-((4-methyl-1,4-diazepan-1-yl)methyl)benzyl)amino)benzamide]
	< 60000 nM					< 200 nM	CN1CCCN(Cc2ccc(CNc3ccc(N4CCN(C)CC4)cc3)cc2)CC1 [Example 153, N-(4-((4-methyl-1,4-diazepan-1-yl)methyl)benzyl)-4-(4-methylpiperazin-1-yl)aniline]
			< 200 nM	< 60000 nM			COC(=O)c1ccc(-c2ccc(CN3CCCN(C)CC3)cc2)cc1 [Example 158, methyl 4′-((4-methyl-1,4-diazepan-1-yl)methyl)-[1,1′-biphenyl]-4-carboxylate]

From US9834521B2, “Choline kinase inhibitors” (ARIAD Pharmaceuticals, Inc., priority 2013, dated 2017)
